Test results as given in patent US11718604B2, “4-amino-6-(1,3-benzodioxole)picolinates and their use as herbicides” (Dow AgroSciences LLC, priority 2018, dated 2023).

Assays:
Format in all cases: in vivo
[1] = test system: IPOHE: ivyleaf morningglory (Ipomoea hederacea); assay: Post-emergent herbicidal test, ivyleaf morningglory; details: post-emergence, 336 h, 14 days after application, read-out: Visual Growth Reduction (%) 14 Days After Application IPOHE
Description: (§1) Post-Emergent Test: Seeds or nutlets of the desired test plant species were planted in Sun Gro Metro-Mix® 360 planting mixture, which typically has a pH of 6.0 to 6.8 and an organic matter content of about 30 percent, in plastic pots with a surface area of 64 square centimeters (cm^2). When required to ensure good germination and healthy plants, a fungicide treatment and/or other chemical or physical treatment was applied. The plants were grown for 7-21 d in a greenhouse with an approximate 15 h photoperiod which was maintained at about 23-29° C. during the day and 22-28° C. during the night. Nutrients and water were added on a regular basis and supplemental lighting was provided with overhead metal halide 1000-Watt lamps as necessary. The plants were employed for testing when they reached the first or second true leaf stage.
(§2) A weighed amount, determined by the highest rate to be tested, of each test compound was placed in a 25 mL glass vial and was dissolved in 4 mL of a 97:3 v/v mixture of acetone and DMSO to obtain concentrated stock solutions. […] The concentrated stock solutions obtained were diluted with 20 mL of an aqueous mixture containing acetone, water, isopropyl alcohol, DMSO, Atplus 411F crop oil concentrate, and Triton® X-155 surfactant in a 48.5:39:10:1.5:1.0:0.02 v/v ratio to obtain spray solutions containing the highest application rates. Additional application rates were obtained by serial dilution of 12 mL of the high rate solution into a solution containing 2 mL of a 97:3 v/v mixture of acetone and DMSO and 10 mL of an aqueous mixture containing acetone, water, isopropyl alcohol, DMSO, Atplus 411F crop oil concentrate, and Triton X-155 surfactant in a 48.5:39:10:1.5:1.0:0.02 v/v ratio to obtain ½×, ¼×, ⅛× and 1/16× rates of the high rate. Compound requirements are based upon a 12 mL application volume at a rate of 187 liters per hectare (L/ha). Formulated compounds were applied to the plant material with an overhead Mandel track sprayer equipped with 8002E nozzles calibrated to deliver 187 L/ha over an application area of 0.503 square meters at a spray height of 18 inches (43 cm) above the average plant canopy height. Control plants were sprayed in the same manner with the solvent blank.
(§3) The treated plants and control plants were placed in a greenhouse as described above and watered by subirrigation to prevent wash-off of the test compounds. After 14 d, the condition of the test plants as compared with that of the untreated plants was determined visually and scored on a scale of 0 to 100 percent where 0 corresponds to no injury and 100 corresponds to complete kill.

[2] = test system: EPHHL: wild poinsettia (Euphorbia heterophylla); assay: Post-emergent herbicidal test, wild poinsettia; details: post-emergence, 336 h, 14 days after application, read-out: Visual Growth Reduction (%) 14 Days After Application EPHHL
Description: as §1, §2, §3

[3] = test system: CIRAR: Canada thistle (Cirsium arvense); assay: Post-emergent herbicidal test, Canada thistle; details: post-emergence, 336 h, 14 days after application, read-out: Visual Growth Reduction (%) 14 Days After Application CIRAR
Description: as §1, §2, §3

[4] = test system: ECHCG: barnyardgrass (Echinochloa crus-galli); assay: Post-emergent herbicidal test, barnyardgrass; details: post-emergence, 336 h, 14 days after application, read-out: Visual Growth Reduction (%) 14 Days After Application ECHCG
Description: as §1, §2, §3

[5] = test system: VIOTR: wild violet (Viola tricolor); assay: Post-emergent herbicidal test, wild violet; details: post-emergence, 336 h, 14 days after application, read-out: Visual Growth Reduction (%) 14 Days After Application VIOTR
Description: as §1, §2, §3

[6] = test system: BRSNN: oilseed rape, canola (Brassica napus); assay: Post-emergent herbicidal test, oilseed rape; details: post-emergence, 336 h, 14 days after application, read-out: Visual Growth Reduction (%) 14 Days After Application BRSNN
Description: as §1, §2, §3

[7] = test system: CYPES: yellow nutsedge (Cyperus esculentus); assay: Post-emergent herbicidal test, yellow nutsedge; details: post-emergence, 336 h, 14 days after application, read-out: Visual Growth Reduction (%) 14 Days After Application CYPES
Description: as §1, §2, §3

[8] = test system: ABUTH: velvetleaf (Abutilon theophrasti); assay: Post-emergent herbicidal test, velvetleaf; details: post-emergence, 336 h, 14 days after application, read-out: Visual Growth Reduction (%) 14 Days After Application ABUTH
Description: as §1, §2, §3

[9] = test system: SORVU: shattercane (Sorghum bicolor); assay: Post-emergent herbicidal test, shattercane; details: post-emergence, 336 h, 14 days after application, read-out: Visual Growth Reduction (%) 14 Days After Application SORVU
Description: as §1, §2, §3

[10] = test system: DIGSA: large crabgrass (Digitaria sanguinalis); assay: Post-emergent herbicidal test, large crabgrass; details: post-emergence, 336 h, 14 days after application, read-out: Visual Growth Reduction (%) 14 Days After Application DIGSA
Description: as §1, §2, §3

[11] = test system: SETFA: giant foxtail (Setaria faberi); assay: Post-emergent herbicidal test, giant foxtail; details: post-emergence, 336 h, 14 days after application, read-out: Visual Growth Reduction (%) 14 Days After Application SETFA
Description: as §1, §2, §3

COC(=O)c1nc(-c2ccc(F)c3c2OC(F)(F)O3)c(F)c(N)c1Cl [Compound 7]
pest or weed control at 17.5 g/ha ([1]; 17.5 g ai/ha): 0%
pest or weed control at 35 g/ha ([1]; 35 g ai/ha): 0%
pest or weed control at 70 g/ha ([1]; 70 g ai/ha): 0%
pest or weed control at 140 g/ha ([1]; 140 g ai/ha): 0%
pest or weed control at 17.5 g/ha ([2]; 17.5 g ai/ha): 0%
pest or weed control at 35 g/ha ([2]; 35 g ai/ha): 0%
pest or weed control at 70 g/ha ([2]; 70 g ai/ha): 10%
pest or weed control at 140 g/ha ([2]; 140 g ai/ha): 20%
pest or weed control at 17.5 g/ha ([3]; 17.5 g ai/ha): 60%
pest or weed control at 35 g/ha ([3]; 35 g ai/ha): 70%
pest or weed control at 70 g/ha ([3]; 70 g ai/ha): 75%
pest or weed control at 140 g/ha ([3]; 140 g ai/ha): 80%
pest or weed control at 17.5 g/ha ([4]; 17.5 g ai/ha): 0%
pest or weed control at 35 g/ha ([4]; 35 g ai/ha): 0%
pest or weed control at 70 g/ha ([4]; 70 g ai/ha): 0%
pest or weed control at 140 g/ha ([4]; 140 g ai/ha): 0%
pest or weed control at 17.5 g/ha ([5]; 17.5 g ai/ha): 5%
pest or weed control at 35 g/ha ([5]; 35 g ai/ha): 10%
pest or weed control at 70 g/ha ([5]; 70 g ai/ha): 40%
pest or weed control at 140 g/ha ([5]; 140 g ai/ha): 50%
pest or weed control at 17.5 g/ha ([6]; 17.5 g ai/ha): 50%
pest or weed control at 35 g/ha ([6]; 35 g ai/ha): 60%
pest or weed control at 70 g/ha ([6]; 70 g ai/ha): 80%
pest or weed control at 140 g/ha ([6]; 140 g ai/ha): 85%
pest or weed control at 17.5 g/ha ([7]; 17.5 g ai/ha): 0%
pest or weed control at 35 g/ha ([7]; 35 g ai/ha): 10%
pest or weed control at 70 g/ha ([7]; 70 g ai/ha): 30%
pest or weed control at 140 g/ha ([7]; 140 g ai/ha): 40%
pest or weed control at 17.5 g/ha ([8]; 17.5 g ai/ha): 50%
pest or weed control at 35 g/ha ([8]; 35 g ai/ha): 70%
pest or weed control at 70 g/ha ([8]; 70 g ai/ha): 75%
pest or weed control at 140 g/ha ([8]; 140 g ai/ha): 85%
pest or weed control at 17.5 g/ha ([9]; 17.5 g ai/ha): 0%
pest or weed control at 35 g/ha ([9]; 35 g ai/ha): 0%
pest or weed control at 70 g/ha ([9]; 70 g ai/ha): 0%
pest or weed control at 140 g/ha ([9]; 140 g ai/ha): 0%
pest or weed control at 17.5 g/ha ([10]; 17.5 g ai/ha): 0%
pest or weed control at 35 g/ha ([10]; 35 g ai/ha): 0%
pest or weed control at 70 g/ha ([10]; 70 g ai/ha): 0%
pest or weed control at 140 g/ha ([10]; 140 g ai/ha): 0%
pest or weed control at 17.5 g/ha ([11]; 17.5 g ai/ha): 0%
pest or weed control at 35 g/ha ([11]; 35 g ai/ha): 0%
pest or weed control at 70 g/ha ([11]; 70 g ai/ha): 0%
pest or weed control at 140 g/ha ([11]; 140 g ai/ha): 10%
